Experimental data as given in US10093666B2, “Deuterated O-sulfated beta lactam hydroxamic acids and deuterated N-sulfated beta lactams” (ARIXA PHARMACEUTICALS, INC., priority 2016, dated 2018).

Key:
[1] = Oral dosing of rats (cassette), plasma concentration vs. time by LC/MS/MS; settings: for Ratio of b/a: ratio of plasma concentrations b to a (tigemonam), oral
Procedure: (§1) Samples were withdrawn at various time points indicated below and processed using the following procedure. A 50 μL rat plasma sample was transferred to a well of a 96 well-plate, 20 μL of 0.1 ng/μL of Losartan (internal standard) in acetonitrile was added and 300 μL of acetonitrile/formic acid (100/2). The sample was then vortexed and centrifuged at 300 rpm for 5 minutes. Then 200 μL of the supernatant was mixed with 200 μL of double distilled water and was injected (5 μL) on a phenomex Polar-RF 80A column (75×2.0 mm), which was run at 30° C. at a flow rate of 600 μL/minute with a mobile phase A of acetonitrile/formic acid 100/0.02 and a mobile phase B of water/formic acid 100/0.02. The eluate was analyzed by LC/MS/MS (electrospray) to provide the following values of plasma concentration vs. time listed in Table 1, which were then plotted to yield the graph illustrated in FIG. 2.
Each time point above represents a value obtained by averaging the measured plasma concentration of three rats. […] Other compounds may also be tested in the above assay.

[2] = IV dosing of rats (cassette), plasma concentration vs. time by LC/MS/MS; settings: for Ratio of b/a: ratio of plasma concentrations b to a (tigemonam), rats, IV
Procedure: as §1, with “A cohort of three rats was IV dosed using 2 mg/kg cassette IV dosing. […] Samples” for “Samples”, “Polar-RP” for “Polar-RF”, “100/0.02.” for “100/0.02. The eluate was analyzed by LC/MS/MS (electrospray) to provide the following values of plasma concentration vs. time listed in Table 1, which were then plotted to yield the graph illustrated in FIG. 2.”
Each time point above represents a value obtained by averaging the measured plasma concentration of three rats.

[2H]C([2H])([2H])C1(C([2H])([2H])[2H])[C@H](NC(=O)/C(=N\OCC(=O)O)c2csc(N)n2)C(=O)N1OS(=O)(=O)O [b]
effect of deuteration of tigemonam on oral bioavailability ([1]; rat, in vivo, po): increase | plasma level greater than the plasma level of tigemonam ([1]; rat, in vivo, po, 5 mg/kg): at least 20% | r = b − a ([1]; rat, in vivo, po, 0.167 h): 266 | r = b − a ([1]; rat, in vivo, po, 0.5 h): 694 | r = b − a ([1]; rat, in vivo, po, 1 h): 531 | r = b − a ([1]; rat, in vivo, po, 2 h): 175 | r = b − a ([1]; rat, in vivo, po, 4 h): 55 | r = b − a ([1]; rat, in vivo, po, 6 h): 4 | r = b − a ([1]; rat, in vivo, po, 8 h): 1 | r = b − a ([1]; rat, in vivo, po, 24 h): 0 | Ratio of b/a ([1]; rats, 0.167 hours): 1.19 | Ratio of b/a ([1]; rats, 0.5 hours): 1.24 | Ratio of b/a ([1]; rats, 1 hours): 1.25 | Ratio of b/a ([1]; rats, 2 hours): 1.26 | Ratio of b/a ([1]; rats, 4 hours): 1.48 | Ratio of b/a ([1]; rats, 8 hours): 1.25 | Ratio of b/a ([1]; rats, C6 hours): 1.15 | oral absorption compared with tigemonam ([1]; rats, oral cassette dosing, 5 mg/kg each): increased level | effect of deuteration of tigemonam on IV bioavailability ([2]; rat, in vivo, iv): no effect | plasma levels compared with tigemonam ([2]; rat, in vivo, iv, 1 mg/kg): almost identical | r = b − a ([2]; rat, in vivo, iv, 0.167 h): 235 | r = b − a ([2]; rat, in vivo, iv, 0.5 h): 19 | r = b − a ([2]; rat, in vivo, iv, 1 h): −31 | r = b − a ([2]; rat, in vivo, iv, 2 h): 21 | r = b − a ([2]; rat, in vivo, iv, 4 h): 2 | r = b − a ([2]; rat, in vivo, iv, 6 h): −2 | r = b − a ([2]; rat, in vivo, iv, 8 h): 0 | r = b − a ([2]; rat, in vivo, iv, 24 h): 0 | Ratio of b/a ([2]; 0.167 hours): 1.04 | Ratio of b/a ([2]; 0.5 hours): 1.01 | Ratio of b/a ([2]; 1 hours): .9 | Ratio of b/a ([2]; 2 hours): 1.14 | Ratio of b/a ([2]; 4 hours): 1.06 | Ratio of b/a ([2]; 6 hours): .6
